Patent US20240299353A1, “COMPOSITIONS AND METHODS FOR TREATING […] 5-MEO-DMT” (Alvarius Pharmaceuticals Ltd., priority 2021, published 2024)
Values joined by “and” are separate entries in the source; they are usually repeats but may differ in a detail not shown here. Equal entries are not always repeated.

Tested on: hippocampal proteins
Assay: Hippocampal LC-MS/MS proteomics and PANTHER pathway overrepresentation
Format: in vivo, Male Wistar rats
Conditions: hippocampus
Procedure: These treatment groups were used for the molecular assessment of addiction-linked markers.
Due to incompatibilities between components of the lysis buffer in the High-Performance Liquid Chromatography (HPLC) mass spectrometer the samples were first precipitated in 100% (w/v) Trichloroacetic acid (TCA). 1 volume of TCA stock was added to 4 volumes of protein sample. The mixture was incubated for 10 mins at 4° C. before centrifugation at 14,000 RPM for 5 mins. The supernatant was discarded and the pellet was washed in acetone. The acetone was then discarded and the pellet was air-dried before resuspension in 6M urea (Sigma) made in 50 mM ammonium bicarbonate (ABC, Sigma). 100 mM dithiothreitol (DTT) was added to the sample for a final concentration of 5 mM and the sample was incubated while vortexing at 60° C. for 30 mins. Next, 200 mM iodoacetemide (IAA, Sigma) solution was added and the sample was incubated in the dark at room temperature for 30 mins. The sample was then diluted with 50 mM ABC to give a final concentration of ≤2M Urea before the addition of trypsin. 50 μl of reduced, alkylated sample was added to a vial of trypsin singles, proteomic grade (Sigma) and incubated at 37° C. overnight while vortexing. 1% acetic acid (AA) was added to the sample to stop the trypsination the following day. Sample clean-up was performed using Stage Tips for a 10 μl pipette with a 0.6 μl C18 resin (Merck) and clean up was carried out as follows; Tip was equilibrated (10 μl of 50% acetonitrile (ACN) in 0.1% trifluoroacetic acid (TFA) was aspirated into the tip and dispensed to waste x2, 10 μl of 0.1% TFA was aspirated and dispensed to waste x2), peptides were bound to resin and washed (10 μl of sample was aspirated and dispensed x5 cycles, 10 μl of 0.1% TFA was aspirated and dispensed to waste x2) before being eluted into a collecting tube containing 30 μl of 50% ACN in 0.1% TFA (aspirate and dispense the sample through Stage Tip x3). This process was repeated three times for each sample using the same Stage Tip and collection tube. Samples were dried in a vacuum centrifuge for 30 mins at 60° C. and resuspended in 30 μl of Buffer A (97% water, 2.5% ACN and 0.5% AA) and stored at −20° C.
Digested samples were run on a Thermo Scientific Q Exactive mass spectrometer connected to a Dionex Ultimate 3000 (RSLCnano) chromatography system. Tryptic peptides were resuspended in 0.1% formic acid. Each sample was loaded onto a fused silica emitter (75 μm ID, pulled using a laser puller (Sutter Instruments P2000)), packed with Recrocil Pur C18 (1.9 μm) reverse phase media and was separated by an increasing acetonitrile gradient over 47 mins at a flow rate of 250 nL/min. The mass spectrometer was operated in positive ion mode with a capillary temperature of 320° C., and with a potential of 2300V applied to the frit. All readings were acquired with the mass spectrometer operating in automatic data dependent switching mode. A high resolution (70,000) MS scan was performed using the Q Exactive to select the most intense ions prior to MS/MS analysis using Higher-energy collisional dissociation (HCD). To identify peptides and proteins the MS/MS spectra were searched against the rat UniProt database. The database searches were performed with carbamidomethylation (C) as a fixed modification and acetylation (protein N terminus) and oxidation (M) as variable modifications. Filtering by a false discovery rate (FDR) was applied for peptides and proteins (0.01). For the generation of label-free quantitative (LFQ) ion intensities for protein profiles, signals of corresponding peptides in different LCMS/MS runs were matched by MaxQuant.
The Perseus statistical software contained in the MaxQuant package was used to analyze ion intensities (LFQ Intensity). Protein identities were filtered to eliminate the identifications from the reverse database, only identified by site and common contaminants.

In the case of `COC(=O)[C@H]1[C@@H](OC(=O)c2ccccc2)C[C@@H]2CC[C@H]1N2C.Cl` [cocaine, cocaine hydrochloride, reference compound], the “differentially expressed proteins vs saline+vehicle” value (“differentially … vs saline+vehicle” below) (24 h, cocaine+vehicle, p<0.05, fold change ≥±20%) is reported as 340 proteins, the “pathways significantly overrepresented (PANTHER)” value (cocaine group) is reported as 157 pathways and the top overrepresented pathways (cocaine-experienced animals) is reported as “regulation of metabolic processes, protein translation and synaptic signalling”.
For `COc1ccc2[nH]cc(CCN(C)C)c2c1` [5-MeO-DMT, 5-methoxy-N,N-dimethyltryptamine], the “of the 118 5-MeO-DMT differentially expressed proteins, shared with the combination” value (10 mg/kg 5-MeO-DMT) was 45 proteins, the “pathways significantly overrepresented (PANTHER)” value (10 mg/kg 5-MeO-DMT) was 16 pathways and the top overrepresented pathways (10 mg/kg 5-MeO-DMT) was “altered protein translation and synthesis”. The “of the 120 5-MeO-DMT differentially expressed proteins, shared with the combination” value (20 mg/kg 5-MeO-DMT) was 57 proteins, the “pathways significantly overrepresented (PANTHER)” value (20 mg/kg 5-MeO-DMT) was 24 pathways and the top overrepresented pathways (20 mg/kg 5-MeO-DMT) was “regulation of synapse organisation, structure and activity as well as modulating chemical transmission”. The “differentially … vs saline+vehicle” value (24 h, 10 mg/kg 5-MeO-DMT) was 118 proteins, the “differentially expressed proteins shared between the two concentrations” value (24 h, 10 mg/kg and 20 mg/kg 5-MeO-DMT alone) was 32 proteins and the “differentially … vs saline+vehicle” value (24 h, 20 mg/kg 5-MeO-DMT) was 120 proteins. For the same compound, the “differentially … vs saline+vehicle” value (24 h, cocaine+10 mg/kg 5-MeO-DMT, 10 mg/kg) was 541 proteins and 544 proteins, the “differentially … vs saline+vehicle” value (24 h, cocaine+20 mg/kg 5-MeO-DMT) was 221 proteins and the “of the 340 cocaine differentially expressed proteins, remaining in the combination” value (cocaine+10 mg/kg 5-MeO-DMT) was 245 proteins. The “pathways significantly overrepresented (PANTHER)” value (cocaine+10 mg/kg 5-MeO-DMT) was 309 pathways, the top overrepresented pathways (cocaine+10 mg/kg 5-MeO-DMT) was “NAD and NADH metabolism, positive regulation of lamellipodium assembly and modulation of synaptic signaling” and the “of the 340 cocaine differentially expressed proteins, remaining in the combination” value (cocaine+20 mg/kg 5-MeO-DMT) was 85 proteins. The “pathways significantly overrepresented (PANTHER)” value (cocaine+20 mg/kg 5-MeO-DMT) was 67 pathways, the top overrepresented pathways (cocaine+20 mg/kg 5-MeO-DMT) was “positive regulation of telomerase activity, negative regulation of apoptosis and regulation of synapse organization, structure and activity” and the “differentially expressed proteins shared between the combination groups” value (cocaine+10 and cocaine+20 mg/kg 5-MeO-DMT) was 153 proteins.
